Bounds are passed on as bounds.

Regarding `CCNc1ncccc1C(=O)Nc1c(C)ccnc1Cl`, the melting point fell in the range of 122 to 124 °C.

Compound `CCn1cc(C(=O)NCc2ccc(Cl)cc2)c(=O)c2cc(C#CCO)sc21` had a melting point of 217 to 219 °C.

Compound `CN[C@@H](Cc1ccc(C(F)(F)F)cc1)[C@H](O)c1ccc(F)cc1` (racemic) registered a melting point of 79 to 80 °C.

Consider `O=c1c2c(CCCc3ccccc3)n[nH]c2c2cccnc2n1-c1ccccc1`, for which the melting point lay within 202 to 204 °C.

For the compound `COC(=O)CCC(=O)N(O)Cc1c(C)n(C(=O)c2ccc(Cl)cc2)c2ccc(OC)cc12`, the melting point is 158 °C.

Regarding `COc1ccc(C2Sc3ccccc3N(CCN(C)C)C(=O)C2OC(=O)c2cccc([N+](=O)[O-])c2)cc1` (configuration not stated), the melting point lay in the range of 178 to 180 °C.

For the compound `CC1=C(C(=O)c2ccc3c(c2)CCN(C(N)=O)C3)C(C)(C)CC1`, the melting point lay in the range of 40.1 to 41.4 °C.

`Cc1ccc(N2CCCN(C(=O)OC(C)(C)C)CC2)cc1[N+](=O)[O-]` yielded a melting point of 103 to 106 °C.

Compound `CC1(C)CC(=O)C(C(=O)Nc2cccc(C(F)(F)F)c2)C(=O)C1` came in with a melting point of 116 to 117 °C.

In turn, `O=C1Nc2ccc(S(=O)(=O)N3CCC[C@H]3COc3ccccc3)cc2C1=O` had a melting point of 204 to 206 °C.

Take `CN1C(c2ccccc2)CC(=O)CC1c1ccccc1` (configuration not stated): the melting point is 147 to 149 °C.

For `Cn1cccc1-c1cc(OC(F)F)n(-c2ccc(NC(=O)c3ccncc3F)cc2)n1`, the melting point was in the range of 154 to 155 °C.

`Cc1ccc(C(=O)C2=C(O)C(=O)N(c3ncc(S(=O)(=O)N(C)C)s3)C2c2ccc(C(C)C)cc2)cc1` (configuration not stated) yielded a melting point of 237 to 241 °C.

`O=c1ncc(Cl)cn1COCc1cnsn1` gave a melting point of 106 °C.

Compound `Cc1cc(Cl)ccc1-c1c(O)c(C)c(-c2ccccn2)oc1=O` registered a melting point of 133 to 135 °C.

`CCCCCCCCCCCCCCN=C=S`: the melting point was 77 to 79 °C.

For `CS(=O)(=O)Nc1ccc(-c2ccc(C(=O)O)c(=O)[nH]2)cc1`, the melting point is more than 320 °C.

The compound `COc1cc2[nH]c(=O)sc2cc1OC` gave a melting point of 192 to 193 °C.

The compound `CC(C)(C)C1c2ccccc2-c2ccccc2N1S(=O)(=O)c1ccc(O)cc1` (configuration not stated) displayed a melting point of 187 to 189 °C.

In turn, `Cn1cc(C(=O)O)c(=O)c2cc(F)c(N3CCCN(c4ncccn4)CC3)c(C(F)(F)F)c21` came in with a melting point of 243 to 245 °C.

Compound `CCOC(=O)C1(C(=O)OCC)CCC2(NCCc3cc(OC)c(OC)cc32)C(C2=NCCc3cc(OC)c(OC)cc32)C1` (configuration not stated) yielded a melting point of 116 to 118 °C.

With `CC(N)=CC(=O)OCC(C)(C)CN(C)Cc1ccccc1`, the melting point is 68 to 70 °C.

Take `Oc1cccc2ccc(N3CCN(c4nc5ccc(C(F)(F)F)cc5[nH]4)CC3)nc12`: the melting point lay in the range of 191 to 193 °C.

`CC(C)=CCn1c(C)cnc1[N+](=O)[O-]` showed a melting point of 78 to 79 °C.

With `CCOC(=O)c1cccc2nc(CC)n(Cc3ccc(-c4ccccc4C(=O)C(=O)OC)cc3)c12`, the melting point was in the range of 118 to 119 °C.

For `CC1(C)CC(=O)Nc2cc3nc(-c4ccc(-n5ccnc5)cc4)[nH]c3cc21`, the melting point was more than 300 °C.

Regarding `COC(=O)C(NC(C)=O)C(=O)OCCBr` (configuration not stated), the melting point was 84 to 85 °C.

The compound `CS(=O)(=O)c1ccc(-n2cc(-c3ccc(Br)cc3)nc2-c2ccc(Cl)cc2)cc1` registered a melting point of 145 to 148 °C.

The compound `O=c1[nH]cnc2cc(Cl)sc12` registered a melting point of 238 to 239 °C.

Take `O=C(O)c1ccc(-c2ccc(Cl)cc2)cn1`: the melting point was more than 260 °C.

Turning to `NC(=O)c1cnn2c1NCC=C2c1cccc(C(F)(F)F)c1`, the melting point fell in the range of 157 to 160 °C.

In turn, `CC/C(=C\CCC(O)(CC)CC)c1ccc(COc2ccc(CO)c(CO)c2)s1` yielded a melting point of 82 °C.

For the compound `CC(C)Cc1ccc(C(C)C(=O)NCCN(O)C(N)=O)cc1` (configuration not stated), the melting point fell in the range of 150 to 152 °C.

On to `O=C1Cc2c(Cl)cccc2Sc2ccccc21`, for which the melting point lay within 122 to 125 °C.

Take `COc1ccc(OC)c(S(=O)(=O)c2ccc(Cl)cc2NC(=O)N[C@@H](Cc2ccc(NC(=O)c3c(Cl)cncc3Cl)cc2)C(=O)O)c1`: the melting point came out at 168 °C.

As to `O=c1oc2c(c(O)c1Sc1nc3ccccc3o1)c(=O)n(Cc1ccccc1)c1ccccc21`, the melting point lay in the range of 196 to 198 °C.

As to `COC(=O)CC1OCCN(CCc2c[nH]c3ccc(C)cc23)C1=O` (configuration not stated), the melting point is 138 °C.

As to `CC(C)(C)OC(=O)NCCSc1cccc2nccn12`, the melting point was 105 to 107 °C.

Consider `CCCn1cc(C(=O)c2cccc3cc(OC)ccc23)c2ccccc21`, for which the melting point lay in the range of 139 to 140 °C.

Turning to `O=C(Nc1ccc2cc(CN3CCCC3)cnc2c1F)c1ccc(-c2ccccc2)cc1`, the melting point was in the range of 186 to 188 °C.

The compound `CCCCN1CCN(CCNC(=O)c2nn(C(C)C)c3ccccc23)CC1` displayed a melting point of 82 to 84 °C.

As to `CCCCCCCC(=O)ON=C(c1ccccc1)c1cc(C(C)(C)C)c(O)c(C(C)(C)C)c1`, the melting point fell in the range of 76.3 to 77.2 °C.

In turn, `CCOC(=O)N1CC[C@@H]2CC(=O)c3cc([N+](=O)[O-])ccc3C[C@H]2C1` (relative stereo) registered a melting point of 112 to 114 °C.

In turn, `COC(=O)c1cc(O)cnc1C1=NC(=O)C(C)(C(C)C)N1` (configuration not stated) yielded a melting point of 200 to 205 °C.

The compound `COc1cccc2c(=O)n3c(C)c(Br)sc3nc12` came in with a melting point of 198 to 199 °C.

As for `CC(=O)n1cc(-c2ccccc2)nc1-c1ccccc1C`, the melting point lay in the range of 102 to 104 °C.

`CCC(n1cncn1)C(O)(Cn1cncn1)c1c(F)cccc1F` (configuration not stated) had a melting point of 110 to 111 °C.

In turn, `O=C1NC(C(=O)NCCO[N+](=O)[O-])C(c2ccccc2)S1` (configuration not stated) registered a melting point of 139 to 140 °C.

Take `NC(=O)CC(CC(N)=O)c1ccccc1Br`: the melting point was in the range of 168 to 170 °C.

Turning to `Cc1cc(CC(C)(C)CO)cc(C)c1O`, the melting point lay in the range of 133 to 134 °C.

The compound `CC(O)c1cc(I)cc(S(N)(=O)=O)c1` (configuration not stated) displayed a melting point of 184 to 187 °C.

Regarding `COC(=O)c1cc(-c2nccs2)cc2c1OC(c1ccccc1)(c1ccccc1)O2`, the melting point is 154 to 155 °C.

Take `CCCOc1cc(S(C)(=O)=O)ccc1-c1ccc(C#N)c(=O)[nH]1`: the melting point was in the range of 241 to 242 °C.

Consider `Clc1ccc2nc(CN3CCN(c4ncccn4)CC3)cn2c1`, for which the melting point lay within 114 to 115 °C.

`COc1ccc(C2(O)CC=C(c3ccncc3)N(C)C2=O)cc1` (configuration not stated): the melting point fell in the range of 224 to 226 °C.

Regarding `CN(C)c1nn(C(=O)Cl)c(=O)n1C`, the melting point is 78 to 80 °C.

`Cc1nc(-c2cc(Cl)ccc2Cl)n2c1nnc1ccc(N3CCCCC3)cc12` showed a melting point of 158 to 160 °C.

For `COc1cc(C)c2c(c1)C(C(=O)O)=CCC2`, the melting point was 149 to 150 °C.

The compound `COc1cccc(Cn2nc3oc(=O)cc(C)c3c2C)c1` gave a melting point of 148 to 151 °C.

`O=C(Nc1ccccn1)C(CC1CCCC1)c1ccc(C(F)(F)F)c(F)c1` (configuration not stated) displayed a melting point of 40 to 44 °C.

For the compound `CC1CN(c2c(F)cc3c(=O)c(C(=O)O)cn4c3c2CC4C)CC(C)N1C` (single isomer, unassigned; (+)), the melting point lay within 204 to 206 °C.

Take `CCOC(=O)Cc1ccc(C(=O)c2ccc(Cl)cc2)n1C`: the melting point is 74 to 76 °C.

As to `N#Cc1ccc2c(c1)S(=O)(=O)c1ccccc1C2=O`, the melting point is 282 to 283 °C.

In turn, `COc1ccc2c(c1)CCC1C2C(O)CC2(C)C1CC1OCCOC12` (configuration not stated) yielded a melting point of 125 to 126 °C.

In turn, `C#CCN1C(=O)COc2cc(F)c(-n3nc4n(c3=O)CCS4)cc21` returned a melting point of 211 to 213 °C.

`Cc1ccccc1CCNC(=O)c1ccc(Cl)cc1`: the melting point lay in the range of 95 to 96 °C.

On to `COC(=O)c1ccccc1S(=O)(=O)NC(=O)Nc1ncccn1`, for which the melting point is 188 to 192 °C.

In turn, `CC(C)COP(C)(=O)c1ccccc1S(N)(=O)=O` (configuration not stated) returned a melting point of 50 to 52 °C.

The compound `CCCCNC(=O)c1cc(-c2csc(-c3ccc([N+](=O)[O-])cc3)n2)n(CC2CCCCC2)c1C` had a melting point of 184 to 187 °C.

For the compound `COc1cc(OCCOc2ccc(C(=O)C(=O)O)cc2)cc(OC)c1OC`, the melting point lay in the range of 118 to 119 °C.

`CC(=O)Nc1ccc2c(c1)C(=O)C(Br)CCO2` (configuration not stated): the melting point was in the range of 157 to 160 °C.

On to `CCC(CC)N1C(=O)CCc2c1cc(C)nc2Nc1c(C)cc(C)cc1C`, for which the melting point lay within 44 to 46 °C.

`Cn1cc(Oc2ccccc2)c(=S)c(-c2cccc(C(F)(F)F)c2)c1` yielded a melting point of 127 to 131 °C.

As for `CC(C)c1nc(-c2ccccc2)n(-c2ccc(F)cc2)c1C=C(Br)Br`, the melting point lay in the range of 164 to 165 °C.

With `CN1C(=O)CCC(C)(C)c2cc(Nc3ncc(Cl)c(Nc4ccccc4-n4cccn4)n3)ccc21`, the melting point lay in the range of 136 to 138 °C.

`NC(=O)c1cn(-c2ccccn2)nc1-c1ccc([N+](=O)[O-])o1` showed a melting point of 250 °C.

As for `Cc1ccc2c(c1)C(=O)C(=O)N2CC(N)=O`, the melting point fell in the range of 171 to 172 °C.

Take `Nc1ncc(Sc2ccc(C(F)(F)F)cn2)s1`: the melting point was 135 to 138 °C.

On to `C=CCc1cc(C=C(C(=O)OCC)C(=O)OCC)cc(OC)c1OC`, for which the melting point was in the range of 43 to 44 °C.

The compound `CCCCCCCCCc1ccc(-c2nc(C)c(C(C)=NNC(=N)N)s2)cc1` came in with a melting point of 203 to 206 °C.

`CCCCc1nc(Cl)c(CO)n1Cc1ccc2oc(-c3ccccc3-c3nnn[nH]3)c(Br)c2c1` showed a melting point of 193 to 197 °C.

`Cc1ccc(C(=O)NC(NC(=S)Nc2cccc([N+](=O)[O-])c2)C(C)(C)C)cc1` (configuration not stated) yielded a melting point of 181 to 182 °C.

`CCc1nc(C)c(C(=O)OC(C)OC(=O)C(C)(C)OC)n1Cc1ccc2oc(-c3ccccc3-c3nnn[nH]3)c(Br)c2c1` (configuration not stated) had a melting point of 135 to 140 °C.

Compound `O=C(OCc1ccccc1)C1=C(S(=O)c2ccccc2)CC2CC(=O)N12` (configuration not stated) gave a melting point of 129 to 131 °C.

With `COC1C(OC(=O)c2ccccc2)C(COC(=O)c2ccccc2)OC1n1ccc(=O)[nH]c1=O` (configuration not stated), the melting point lay in the range of 132 to 134 °C.

Regarding `O=C1C(=O)c2ccc(-c3ccccc3)cc2C2=C1SCC1(CCN(CC(O)COc3ccc(F)cc3)CC1)O2` (configuration not stated), the melting point lay within 173 to 175 °C.

Turning to `CCCCCc1ccc(NS(=O)(=O)c2ccc(N3CCNC3=O)cc2)cc1`, the melting point is 207 to 209 °C.

The term melting point denotes the temperature, or range, at which the solid turns liquid.

(Values after a melting point compilation (Tetko et al.; mined from patent text by program, amines drawn as free bases though some values may be those of a salt).)
